Results from US7084158B2, “Substituted propargylamines” (Bayer Cropscience S.A., priority 2001, dated 2006).

Assays:
Assay type in all cases: in vivo
Parameters in all cases: key: compounds were considered to be active when, at a concentration of 500 ppm or less, they had an activity on the harmful organisms of 50% or more
Nilaparvata lugens = test: Example A: rice leaf dip, leafhopper larvae mortality; details: 500 ppm or less; L3 larvae on dipped rice plants; after 6 days
Method: The leaves of 12 rice plants having a stem length of 8 cm were dipped for 5 seconds into an aqueous solution of the formulated compound to be examined. After the solution had run off, the rice plants treated in this manner were placed into a Petri dish and populated with about 20 larvae (L3 stage) of the rice leafhopper species Nilaparvata lugens. The Petri dish was closed and then stored in a climatized chamber (16 hours of light/day, 25° C., 40–60% relative atmospheric humidity). After 6 days of storage, the mortality among the leafhopper larvae was determined. The compounds of the following examples were active: Nos. 29, 32, 42, 43, 51, 70, 84, 1002, 1004, 1005, 1040, 180, 184, 193, 197, 203, 209, 1059, 264, 265, 1066.

Heliothis virescens [1] = test: Example B: tobacco budworm eggs on filter paper/insect diet, mortality; details: 500 ppm or less; 24-hour-old eggs dipped, diet treated; after 6 days
[2] = test system: Diabrotica undecimpunctata; test: Example C: corn rootworm eggs with maize corn, mortality; details: 500 ppm or less; 4-5-day-old eggs; after 6 days
Carpocapsa pomonella [3] = test: Example D: dipped apples, codling moth L1 larvae mortality; details: 500 ppm or less, after 14 days
Method: Apples were dipped into an aqueous solution of the formulated compound to be examined. The apples were then populated with 10 L1 larvae of the codling moth (Carpocapsa pomonella). After 14 days of storage at about 25° C., the effect of the compound on the larvae was determined (mortality). The compounds of the following examples were active: Nos. 14, 15, 17, 18, 70, 1007, 1008, 1009, 1036, 1038, 197.

Plutella maculipennis = test: Example K: sprayed white cabbage leaf, diamondback moth larvae mortality; details: 500 ppm or less, after 3 days
Method: A white cabbage leaf was sprayed with an aqueous solution of the formulated compound to be examined. After the spray coating had dried, the treated leaf was populated with larvae of the diamondback moth (Plutella maculipennis). After 3 days of storage at about 23° C., the effect of the compound on the larvae was determined (mortality). The compounds of the following examples were active: 60, 70, 1002, 1004, 1005, 1036, 197.

[4] = test system: Leptinotarsa decemlineata; test: Example L: potato leaves and larvae sprayed, Colorado beetle mortality; details: 500 ppm or less, after 4 days
Method: Potato leaves were populated with larvae of the Colorado beetle (Leptinotarsa decemlineata). Leaves and larvae were then sprayed with an aqueous solution of the formulated compound to be examined. After 4 days of storage at about 25° C., the effect of the compound on the larvae was determined (mortality). The compounds of the following examples were active: 60, 70, 1002, 1004, 1005, 1036, 1047, 197.

Ctenocephalides felis = test: Example M: cat fleas fed with treated cattle blood, mortality; details: 500 ppm or less; adult fleas fed blood-preparation mixture; after 48 hours
Method: The formulated compound was mixed with defibrinated cattle blood. 10 adult cat fleas (Ctenocephalides felis) were fed with this blood-preparation mixture. After 48 hours at about 38° C., the effect of the compound on the fleas was determined (mortality). The compounds of the following examples were active: 70, 1002, 1004, 1005, 1036, 60, 197, 1057.

Spodoptera exigua [5] = test: Example Y: cotton plants sprayed, cut leaves, sugar beet armyworm mortality; details: 500 ppm or less, leaves cut after drying, L2 larvae, after 4 days
Method: Cotton plants were sprayed with an aqueous solution of the formulated compound to be examined. After drying, leaves were cut off, placed into a Petri dish and populated with 5 L2 larvae of the sugar beet armyworm (Spodoptera exigua). After 4 days of storage at about 23° C., the mortality among the larvae was determined. The following examples were active: 1036, 70, 60, 1047, 197.

Spodoptera exigua [6] = test: Example Z: cotton leaves with larvae sprayed, sugar beet armyworm mortality; details: 500 ppm or less; cotton leaves populated then sprayed; L2 larvae; after 4 days
Method: Cotton leaves were populated with 5 L2 larvae of the sugar beet armyworm (Spodoptera exigua) and then sprayed with an aqueous solution of the formulated compound to be examined. After 4 days of storage at about 23° C., the mortality among the larvae was determined. The following examples were active: 1036, 70, 60, 1047, 197.

Carpocapsa pomonella [7] = test: Example AA: insect diet mixed with compound, codling moth L1 larvae mortality; details: 500 ppm or less, compound mixed into insect diet, after 14 days
Method: Insect diet was mixed with an aqueous solution of the formulated compound to be examined and populated with 10 L1 larvae of the codling moth (Carpocapsa pomonella). After 14 days of storage at about 23° C., the mortality among the larvae was determined. The following examples were active: 70, 197.

Heliothis virescens [8] = test: Example AB: cotton leaves with larvae sprayed, tobacco budworm mortality; details: 500 ppm or less; cotton leaves with L2 larvae sprayed; after 4 days
Method: Cotton leaves were placed into a Petri dish, populated with 5 L2 larvae of the American tobacco budworm (Heliothis virescens) and sprayed with an aqueous solution of the formulated compound to be examined. After 4 days of storage at about 25° C., the mortality among the larvae was determined. The following examples were active: 70, 1047, 197.

[9] = test system: Diabrotica undecimpunctata; test: Example AC: treated soil, southern corn rootworm eggs mortality; details: 500 ppm or less, eggs added after 0d, 21d and 42d, after 2 weeks
Method: An aqueous solution of the formulated compound to be examined was mixed with soil. After 0d, 21d and 42d, eggs of the southern corn rootworm (Diabrotica undecimpunctata) were placed together with 2 pre-swollen maize corns into a dish, covered with the treated soil and moisted with 10 ml of water. Soil and eggs were placed in a greenhouse (23° C., 60% relative atmosphere humidity). After 2 weeks of storage, the effect of the compound on the eggs and any larvae hatched therefrom was determined (mortality). The following examples were active: 70, 60, 197, 204.

[10] = test system: Trialeurodes vaporariorum; test: Example AD: bush beans sprayed, white fly larvicidal action; details: 500 ppm or less; bush beans sprayed after hatching; after 11 days
Method: For oviposition, bush beans (Phaseolus vulgaris) were populated for 48 hours with adults of the white fly (Trialeurodes vaporariorum). After the larvae had hatched, the plants were sprayed to run-off point with an aqueous solution of the formulated compound to be examined. After 11 days, the larvicidal action was determined. The following examples were active: 1036, 70, 60, 1040, 197.

Rhipicephalus sanguineus = test: Example AF: treated filter paper, tick larvae mortality; details: 500 ppm or less, after 24 hours
Method: The formulated compound was pipetted onto filter paper. After the solvent had evaporated, 20–30 tick larvae (Rhipicephalus sanguineus) were placed onto the filter paper. After 24 hours at about 25° C., the effect of the compound on the ticks was determined (mortality). The following examples were active: 197, 1057.

Cc1cc(C(F)(F)F)cc(C#CCN2CCC(C)CC2)n1 [Example 197]
active: mortality among the leafhopper larvae (Nilaparvata lugens) | effect on the eggs and hatched larvae (mortality) (Heliothis virescens [1]) | effect on the eggs and hatched larvae (mortality) [2] | effect on the larvae (mortality) (Carpocapsa pomonella [3]) | effect on the larvae (mortality) (Plutella maculipennis) | effect on the larvae (mortality) [4] | effect on the fleas (mortality) (Ctenocephalides felis) | mortality among the larvae (Spodoptera exigua [5]) | mortality among the larvae (Spodoptera exigua [6]) | mortality among the larvae (Carpocapsa pomonella [7]) | mortality among the larvae (Heliothis virescens [8]) | effect on the eggs and hatched larvae (mortality) [9] | larvicidal action [10] | effect on the ticks (mortality) (Rhipicephalus sanguineus)
